This is an account of results in ChEMBL document CHEMBL4219049, “Peptide therapeutics for the treatment of gastrointestinal disorders” (Bioorg Med Chem, 2018).

Molecules are shown by their SMILES. Bridge positions count the residues as written; N and C are the ends. Peptide text beside a SMILES is read from it.

For data set [1], the species on record is Homo sapiens. The data set is described as follows: Toxicity in patient with chronic idiopathic constipation assessed as induction of diarrhea at 3 mg for 12 weeks (reference value: 1.3%). Type of data set: organism-based. As to conditions: in vivo, 2016 h.
The species entered for data set [2] is Homo sapiens. As to the kind of experiment: Toxicity in patient with chronic idiopathic constipation assessed as induction of diarrhea at 6 mg for 12 weeks (reference value: 1.3%). Type of data set: organism-based. As to conditions: in vivo, 2016 h.
The species named for data set [3] is Homo sapiens. The data set is described as follows: Increase in complete spontaneous bowel movements in patient with chronic idiopathic constipation at 3 mg for 12 weeks (reference value: 10.2%). The class given is functional.
The species entered for data set [4] is Homo sapiens. The data set is described as follows: Increase in complete spontaneous bowel movements in patient with chronic idiopathic constipation at 6 mg for 12 weeks (reference value: 10.2%). Type of data set: functional.
Data set [5] can be described thus: Elimination half-life in human plasma at 0.8 pmol/kg.min, iv. The class given is ADME, cell-free. As to conditions: read-out: beta t1/2.
Data set [6] is filed under the species Homo sapiens. The data set is described as follows: Reduction in worst abdominal pain in patient with irritable bowel syndrome with constipation after 26 weeks (reference value: 25%). More on the design: scale not given: the % may be the effect or the level left. The class given is functional.
The species named for data set [7] is Homo sapiens. The data set is described as follows: Toxicity in patient with irritable bowel syndrome with constipation assessed as induction of diarrhea after 26 weeks (reference value: 2.5%). The following applies: in vivo, 4368 h. The class given is organism-based.

As for `CC(C)C[C@H](NC(=O)[C@@H]1CSSC[C@@H]2NC(=O)[C@H](CC(C)C)NC(=O)[C@H](CCC(=O)O)NC(=O)[C@@H](NC(=O)[C@H](CCC(=O)O)NC(=O)[C@H](CC(=O)O)NC(=O)[C@@H](N)CC(N)=O)CSSC[C@H](NC(=O)[C@H](C)NC(=O)[C@H](C(C)C)NC(=O)[C@H](CC(N)=O)NC(=O)[C@H](C(C)C)NC2=O)C(=O)N[C@@H]([C@@H](C)O)C(=O)NCC(=O)N1)C(=O)O` [PLECANATIDE], the Activity in the data set filed under Homo sapiens [1] came to 5.9%; in the data set listed under Homo sapiens [2], 5.7%; in the data set listed under Homo sapiens [3] it was 21%; in the data set listed under Homo sapiens [4], 19.5%.

As to `CC[C@H](C)[C@H](NC(=O)[C@H](Cc1ccccc1)NC(=O)[C@H](CC(=O)O)NC(=O)[C@H](CCCN=C(N)N)NC(=O)[C@H](C)NC(=O)[C@H](C)NC(=O)[C@H](CC(C)C)NC(=O)[C@H](CC(N)=O)NC(=O)[C@H](CC(=O)O)NC(=O)[C@H](CC(C)C)NC(=O)[C@@H](NC(=O)[C@@H](NC(=O)[C@H](CC(N)=O)NC(=O)[C@H](CCSC)NC(=O)[C@H](CCC(=O)O)NC(=O)[C@H](CC(=O)O)NC(=O)[C@H](CO)NC(=O)[C@H](Cc1ccccc1)NC(=O)[C@H](CO)NC(=O)CNC(=O)[C@H](CC(=O)O)NC(=O)[C@H](C)NC(=O)[C@@H](N)Cc1cnc[nH]1)[C@@H](C)O)[C@@H](C)CC)C(=O)N[C@@H](CC(N)=O)C(=O)N[C@@H](Cc1c[nH]c2ccccc12)C(=O)N[C@@H](CC(C)C)C(=O)N[C@H](C(=O)N[C@@H](CCC(N)=O)C(=O)N[C@H](C(=O)N[C@@H](CCCCN)C(=O)N[C@H](C(=O)N[C@H](C(=O)N[C@@H](CC(=O)O)C(=O)O)[C@@H](C)O)[C@@H](C)CC)[C@@H](C)O)[C@@H](C)CC`, in data set [5], the half-life was found to be 7.2 min.

Take `C[C@@H]1NC(=O)[C@@H]2CCCN2C(=O)[C@H](CC(N)=O)NC(=O)[C@@H]2CSSC[C@H](N)C(=O)N[C@H]3CSSC[C@H](NC1=O)C(=O)N[C@@H]([C@@H](C)O)C(=O)NCC(=O)N[C@H](C(=O)N[C@@H](Cc1ccc(O)cc1)C(=O)O)CSSC[C@H](NC(=O)[C@H](Cc1ccc(O)cc1)NC(=O)[C@H](CCC(=O)O)NC3=O)C(=O)N2` [LINACLOTIDE] (H-CCEYCCNPACTGCY-OH; disulfide 1-6, 2-10, 5-13): the results for the Activity in the data set listed under Homo sapiens [6] and in the data set filed under Homo sapiens [7] were 47% and 19.7%, respectively.
